Laboratory results taken from patent US8470852B2, “Substituted 2-amino-quinoline-3-carboxamides as KCNQ2/3 modulators” (Gruenenthal GmbH, priority 2010, dated 2013).

Assays:
[1] = target: T1, KCNQ2/3 channels (Homo sapiens, UniProt O43525+O43526); assay: Fluorescence assay using a voltage sensitive dye (fluorimetry); type: cell-based; details: CHO-K1 cells expressing KCNQ2/3 channels; for Emax: relative to retigabine = 100%, read-out: Fluorimetry % efficacy (retigabine = 100%)
T1 construct: expressed in transfected cells; host or cells: CHO-K1 cells, kept under selection antibiotics
Method: Pharmacological Experiments Method I. Fluorescence Assay Using a Voltage Sensitive Dye (Fluorimetry)
[…] CHO-K1 cells expressing KCNQ2/3 channels are cultivated adherently at 37° C., 5% CO2 and 95% humidity in cell culture bottles (e.g. 80 cm^2 TC flasks, Nunc) with DMEM-high glucose (Sigma Aldrich, D7777) including 10% FCS (PAN Biotech, e.g. 3302-P270521) or alternatively MEM Alpha Medium (1×, liquid, Invitrogen, #22571), 10% fetal calf serum (FCS) (Invitrogen, #10270-106, heat-inactivated) and the necessary selection antibiotics.
Before being sown out for the measurements, the cells are washed with 1×DPBS buffer Ca^2+/Mg^2+-free (e.g. Invitrogen, #14190-094) and detached from the bottom of the culture vessel by using Accutase (PAA Laboratories, #L11-007) (incubation with Accutase for 15 min at 37° C.). The cell number is determined using a CASY™ cell counter (TCC, Schärfe System). Depending on the optimal density for each individual cell line, 20,000-30,000 cells/well/100 μl are seeded onto 96-well Corning™ CellBIND™ assay plates (Flat Clear Bottom Black Polystyrene Microplates, #3340). Freshly seeded cells are then left to settle for one hour at room temperature, followed by incubation for 24 hours at 37° C., 5% CO2 and 95% humidity.
The voltage-sensitive fluorescent dye from the Membrane Potential Assay Kit (Red™ Bulk format part R8123 for FLIPR, MDS Analytical Technologies™) is prepared by dissolving the contents of one vessel Membrane Potential Assay Kit Red Component A in 200 ml of extracellular buffer (ES buffer, 120 mM NaCl, 1 mM KCl, 10 mM HEPES, 2 mM CaCl2, 2 mM MgCl2, 10 mM glucose; pH 7.4). After removal of the nutrient medium, the cells are washed once with 200 μl of ES buffer, then loaded for 45 min at room temperature in 100 μl of dye solution in the dark.
Fluorescence measurements are carried out in a BMG Labtech FLUOstar™, BMG Labtech NOVOstar™ or BMG Labtech POLARstar™ instrument (525 nm excitation, 560 nm emission, Bottom Read mode). After incubation with the dye, 50 μl of the test substances in the desired concentrations, or 50 μl of ES buffer for control purposes, are applied to the wells of the assay plate and incubated for 30 min at room temperature while being shielded from light. The fluorescence intensity of the dye is then measured for 5 min and the fluorescence value F1 of each well is thus determined at a given, constant time. 15 μl of a KCl solution are then added to each well (final concentration of potassium ions 92 mM). The change in fluorescence intensity is subsequently monitored until all the relevant values have been obtained (mainly 5-30 min). At a given time post KCl application, a fluorescence value F2 is determined, in this case at the time of the fluorescence peak.
For calculation, the fluorescence intensity F2 is corrected for the fluorescence intensity F1, and the activity (ΔF/F) of the target compound on the potassium channel is determined as follows:
In order to determine whether a substance has agonistic activity,
[formula] can be related to
[formula] of control wells.
[formula] is determined by adding to the well only the buffer solution instead of the test substance, determining the value F1K of the fluorescence intensity, adding the potassium ions as described above, and measuring a value F2K of the fluorescence intensity. F2K and F1K are then calculated as follows: […]
A substance has an agonistic activity on the potassium channel if
[formula] is greater than
Independently of the comparison of
[formula] it is possible to conclude that a target compound has agonistic activity if
[formula] increases dose dependently.
Calculations of EC50 and IC50 values are carried out with the aid of ‘Prism v4.0’ software (GraphPad Software™).

[2] = test system: formalin-induced nociceptive behaviour, second (late) phase; assay: Formalin test carried out on mice; type: in vivo
Method: Method III. Formalin Test Carried Out on Mice In the formalin test, the testing to determine the antinociceptive effect of the compounds according to the invention is carried out on male mice (NMRI, 20 to 30 g body weight, Iffa, Credo, Belgium). In the formalin test as described by D. Dubuisson et al., Pain 1977, 4, 161-174, a distinction is drawn between the first (early) phase (up to 10 minutes after the injection of formalin) and the second (late) phase (up to 60 minutes after the injection of formalin). The early phase, as an immediate reaction to the injection of formalin, is a model of acute pain, whereas the late phase is regarded as a model of persistent (chronic) pain (T. J. Coderre et al., Pain 1993, 52, 259-285). […] Subsequently, the nociceptive behaviour is continuously detected by observing the animals over a test period of three minutes in the second (late) phase of the formalin test (21 to 24 minutes after the injection of formalin). The pain behaviour is quantified by adding up the seconds over which the animals display licking and biting of the paw in question during the test period. […] Based on the quantification of the pain behaviour, the effect of the substance is determined in the formalin test as a percentage change relative to the corresponding control. […]

[3] = test system: acute noxious thermal stimulus (tail withdrawal reflex); assay: Low-intensity tail flick test (rat); type: in vivo; details: dose 21.5 mg/kg
Method: Method II. Low-Intensity Tail Flick Test (Rat) In the low-intensity tail flick test, the determination of the antinociceptive effect of the compounds according to the invention towards an acute noxious thermal stimulus is carried out by measuring the withdrawal reflex of the rat tail (tail flick) in response to a radiant heat beam (analgesia meter; model 2011 of the company Rhema Labortechnik, Hofheim, Germany) according to the method described by D'Amour and Smith (J. Pharm. Exp. Ther. 72, 74 79 (1941). To this end, the rats were placed in a plexiglas restrainer, and a low-intensity radiant heat beam (48° C.) was focused onto the dorsal surface of the tail root. […] Before administration of a compound according to the invention, the animals were pre-tested twice in the course of five minutes and the mean of these measurements was calculated as the pre-test mean. The antinociceptive effect was determined at 20, 40 and 60 min after peroral compound administration. The antinociceptive effect was calculated based on the increase in the tail withdrawal latency according to the following formula and is expressed as percentage of the maximum possible effect (MPE [%]): MPE=[(T1−T0)/(T2−T0)]*100 In this, T0 is the control latency time before and T1 the latency time after administration of the compound, T2 is the cutoff time and MPE is the maximum possible effect. […]

| SMILES | EC50 [1] [nM] | Emax [1] [%] | Formalin test, mice, intravenous, MPE (dose) ([2]; dose 10.0 mg/kg) | Low intensity tail flick, rat, peroral, MPE (dose) [3] | Formalin test, mice, intravenous, MPE (dose) ([2]; dose 4.64 mg/kg) |
| --- | --- | --- | --- | --- | --- |
| Cc1c(C(=O)NCc2cccc(F)c2)c(N2CCCC2)nc2cc(C(F)(F)F)ccc12 [Example 2, N-[(3-fluorophenyl)-methyl]-4-methyl-2-pyrrolidin-1-yl-7-(trifluoromethyl)-quinoline-3-carboxylic acid amide] | 801 | 186 |  |  |  |
| Cc1c(C(=O)NCc2cccc(F)c2)c(N2CCOCC2)nc2cc(C(F)(F)F)ccc12 [Example 10, N-[(3-Fluorophenyl)-methyl]-4-methyl-2-morpholin-4-yl-7-(trifluoromethyl)-quinoline-3-carboxylic acid amide] | 1070 | 181 |  |  |  |
| CCN(CC)c1nc2cc(C(F)(F)F)ccc2c(C)c1C(=O)NCc1cccc(F)c1 [Example 7, 2-diethylamino-N-[(3-fluorophenyl)-methyl]-4-methyl-7-(trifluoromethyl)-quinoline-3-carboxylic acid amide] | 466 | 199 | 65% (10.0) |  |  |
| Cc1c(C(=O)NCc2ccc(F)cc2)c(N2CCCC2)nc2cc(C(F)(F)F)ccc12 [Example 6, N-[(4-fluorophenyl)-methyl]-4-methyl-2-pyrrolidin-1-yl-7-(trifluoromethyl)-quinoline-3-carboxylic acid amide] | 593 | 204 |  |  |  |
| CNc1nc2cc(C(F)(F)F)ccc2c(C)c1C(=O)NCc1cccc(F)c1 [Example 9, N-[(3-fluorophenyl)-methyl]-4-methyl-2-methylamino-7-(trifluoromethyl)-quinoline-3-carboxylic acid amide] | 403 | 111 |  |  |  |
| Cc1c(C(=O)NCc2cccc(F)c2)c(N(C)C)nc2cc(C(F)(F)F)ccc12 [Example 4, 2-dimethylamino-N-[(3-fluorophenyl)-methyl]-4-methyl-7-(trifluoromethyl)-quinoline-3-carboxylic acid amide] | 510 | 140 |  |  |  |

Further lines, with some results ahead:

| EC50 [1] [nM] | Emax [1] [%] | SMILES | Formalin test, mice, intravenous, MPE (dose) ([2]; dose 10.0 mg/kg) | Low intensity tail flick, rat, peroral, MPE (dose) [3] | Formalin test, mice, intravenous, MPE (dose) ([2]; dose 4.64 mg/kg) |
| --- | --- | --- | --- | --- | --- |
| 307 | 157 | CCNc1nc2cc(C(F)(F)F)ccc2c(C)c1C(=O)NCc1ccc(F)cc1 [Example 8, 2-ethylamino-N-[(4-fluorophenyl)-methyl]-4-methyl-7-(trifluoromethyl)-quinoline-3-carboxylic acid amide] |  |  |  |
| 721 | 205 | CCN(CC)c1nc2cc(C(F)(F)F)ccc2c(C)c1C(=O)NCc1ccc(F)cc1 [Example 5, 2-diethylamino-N-[(4-fluorophenyl)-methyl]-4-methyl-7-(trifluoromethyl)-quinoline-3-carboxylic acid amide] |  |  |  |
| 252 | 141 | CCNc1nc2cc(C(F)(F)F)ccc2c(C)c1C(=O)NCc1cccc(F)c1 [Example 1, 2-ethylamino-N-[(3-fluorophenyl)-methyl]-4-methyl-7-(trifluoromethyl)-quinoline-3-carboxylic acid amide] |  | 44% (21.5) | 71% (4.64) |
| 350 | 105 | Cc1c(C(=O)NCc2ccc(F)cc2)c(N(C)C)nc2cc(C(F)(F)F)ccc12 [Example 3, 2-dimethylamino-N-[(4-fluorophenyl)-methyl]-4-methyl-7-(trifluoromethyl)-quinoline-3-carboxylic acid amide] |  |  |  |
